Reference: patent US10526389B2, “Peptides and combinations of peptides for use in immunotherapy against lung cancer, including NSCLC and other cancers” (Immatics Biotechnologies GmbH, priority 2015, dated 2020)

What was measured:
MHC class I = assay: MHC binding assay (UV-ligand exchange, ELISA); design: species or system human; conditions: yield of UV-ligand exchange reaction
Description: Candidate peptides for T cell based therapies according to the present invention were further tested for their MHC binding capacity (affinity). The individual peptide-MHC complexes were produced by UV-ligand exchange, where a UV-sensitive peptide is cleaved upon UV-irradiation, and exchanged with the peptide of interest as analyzed. Only peptide candidates that can effectively bind and stabilize the peptide-receptive MHC molecules prevent dissociation of the MHC complexes. To determine the yield of the exchange reaction, an ELISA was performed based on the detection of the light chain (62m) of stabilized MHC complexes. The assay was performed as generally described in Rodenko et al (Rodenko et al., 2006).
96 well MAXISorp plates (NUNC) were coated over night with 2 ug/ml streptavidin in PBS at room temperature, washed 4× and blocked for 1 h at 37° C. in 2% BSA containing blocking buffer. Refolded HLA-A*02:01/MLA-001 monomers served as standards, covering the range of 15-500 ng/ml. Peptide-MHC monomers of the UV-exchange reaction were diluted 100 fold in blocking buffer. Samples were incubated for 1h at 37° C., washed four times, incubated with 2 ug/ml HRP conjugated anti-62m for 1h at 37° C., washed again and detected with TMB solution that is stopped with […]. Absorption was measured at 450 nm. Candidate peptides that show a high exchange yield (preferably higher than 50%, most preferred higher than 75%) are generally preferred for a generation and production of antibodies or fragments thereof, and/or T cell receptors or fragments thereof, as they show sufficient avidity to the MHC molecules and prevent dissociation of the MHC complexes.

CD4+ T cells [1] = assay: HLA class II T-cell proliferation assay (ProImmune, CFSE); format: cell-based, human; conditions: for Number of positive donors: 21 donor samples, positive = over 0.02% stimulation above background; for Number of positive donors / Strength of response: mean in % above the background: 5 μM peptide; for Strength of response: mean in % above the background: CD4+ T-cell proliferation (CFSE)
Description: The experiments as follows summarize the results of T-cell Proliferation Assays of selected MHC class II TUMAPs. Nine of 10 tested peptide antigens tested positive for immunogenicity. […] Individual peptide antigens stimulated the CD4+ T-cell proliferation in up to 6 donors. […] Thus, it can be concluded that the newly tested peptides also have a high potential to induce T-cell responses in vaccine trials.
In order to characterize selected peptides for their potential especially as vaccine candidates, their in vitro immunogenicity was determined by analysis of T-cell proliferation using a commercial T-cell Proliferation Assay from the company ProImmune.
Healthy donor CD8-depleted blood cells samples were tested with the selected peptides. The peptides that induce the proliferation of CD4+ T cells can potentially result in the development of a helper T-cell immune response, and therefore are considered to be immunogenic. The proliferation of CD4+ T cells was determined using carboxyfluorescein succinimidyl ester (CFSE) labelling. In proliferating cells, CFSE is distributed evenly to dividing cells. Thus, the proliferation can be measured as a decrease in CFSE fluorescence in the cells as analyzed.
Peripheral blood mononuclear cell (PBMC) samples from healthy human donors were selected from the ProImmune cell bank based on HLA-DRB1 allele expression. CD8^+ T-cells were depleted from donor blood samples prior to use to avoid a false-positive response. The remaining CD4^+ T cells were labelled with CFSE and subsequently incubated with 5 μM of each selected peptide. Each peptide was tested in six replicated wells. The background was measured on each plate in six unstimulated control wells.
After an incubation period of 7 days the cells were co-stained with anti-CD4 antibody and analyzed by flow cytometry. The degree of proliferation was determined by measuring a reduction in CFSE intensity.
The evaluation of flow cytometric data was performed using FlowJo Software (Tree Star, Inc.). The results of flow cytometric analysis were expressed as the ratio of the CD4^+ dim population to the total CD4^+ population. The degree of proliferation was expressed as percentage of stimulation above background, i.e. proportion of antigen stimulated CD4^+ CFSE dim cells minus the proportion of CD4^+ CFSE dim cells from unstimulated control wells. For each sample, a mean and the corresponding standard error of the mean (SEM) of the six replicates were calculated.
Donors were chosen by HLA-DRB1 allele expression. The other two HLA class II loci (DQ and DP) have not been included into the analysis. The interesting DRB1 alleles were selected according to the frequencies of predicted peptide binding based on […] algorithm (Rammensee et al., 1999). For HLA-DR, binding was defined by a […] binding prediction score equal or greater than 18. This threshold score for binding was defined based on the analysis of binding scores of known published promiscuous HLA-DR ligands (Table 24).
All DRB1 alleles with binding frequency over 20% over all selected peptides were requested to be included into the donor panel) by ProImmune. 4 other rare DRB1 alleles (DRB1*10:01, DRB1*16:01, DRB1*08:01, and DRB1*13:03) were requested additionally.
The antigen-stimulated proliferation of CD4^+ T cells was considered as an indicator of in vitro immunogenicity and was investigated in a commercially available T-cell Proliferation Assay from ProImmune. The degree of antigen-stimulated CD4^+ T-cell proliferation was expressed as a percentage of stimulation above background. A response over 0.02% stimulation above background with SEM=2 (i.e. values two standard errors greater than background) was considered to be positive.

CD4 T cells = assay: In vivo immunogenicity in vaccinated patients, intracellular cytokine staining (ICS) of CD4 T cells; design: species or system human; conditions: IMA950 peptides, 16 patients, study IMA950-101
Method: The T-cell proliferation analysis included 5 peptides with known in vivo immunogenicity as positive controls. The in vivo immunogenicity of these peptides was determined in blood samples of patients vaccinated with these peptides in clinical trials using intracellular cytokine staining (ICS) of CD4 T cells.
In principle, ICS assays analyze the quality of specific T cells in terms of effector functions. Therefore the peripheral mononuclear cells (PBMCs) were re-stimulated in vitro with the peptide of interest, a reference peptide and a negative control (here MOCK). Following the re-stimulated cells were stained for IFN-gamma, TNF-alpha, IL-2 and IL-10 production, as well as expression of the co-stimulatory molecule CD154. The counting of stained cells was performed on a flow cytometer (FIG. 5).

CD4+ T cells [2] = conditions: 19 evaluable patients, prostate cancer-specific peptide vaccine (Feyerabend 2009; Widenmeyer 2008); cited from earlier work

Row | Substance | Peptide exchange (MHC class I binding score) (MHC class I) | Number of positive donors (CD4+ T cells [1]; 7 days) | Strength of response: mean in % above the background (CD4+ T cells [1]; 7 days) [%] | further results
1 | 55 (IYPVKYTQTF; listed as Homo sapiens) [compound 55] | +++ (50%-75% = +++) |  |  | 
2 | COL11A1-001 (EGDIQQFLITGDPKAAYDY; listed as Homo sapiens) |  | 5 | 0.19 | 
3 | COL5A2-001 (VARLPIIDLAPVDVGGTD; listed as Homo sapiens) |  | 2 | 0.21 | 
4 | FN1-002: selected HLA class II peptide antigen of the T-cell proliferation assay; probably the FN1 HLA-DR peptide SEQ ID No. 93 (SRPQAPITGYRIVYSPSV; listed as Homo sapiens) |  |  |  | tested positive for immunogenicity (antigen-stimulated CD4+ T-cell proliferation) (CD4+ T cells [1]; positive: >0.02% stimulation above background, 5 uM peptide, 7 days): exception
5 | IGF2BP3-002 (KLYIGNLSENAAPS; listed as Homo sapiens) |  | 3 | 0.40 | 
6 | POSTN-002 (TNGVIHVVDKLLYPADT; listed as Homo sapiens) |  | 2 | 0.39 | 
7 | LAMC2-003 (DAVQMVITEAQKVDTR; listed as Homo sapiens) |  | 3 | 0.27 | 
8 | TGFBI-004: IMA910 class II peptide, positive control with known in vivo immunogenicity (TPPIDAHTRNLLRNH; listed as Homo sapiens) [reference compound] |  | 2 | 0.19 | 
9 | 51 (NYLLESPHRF; listed as Homo sapiens) [compound 51] | +++ (50%-75% = +++) |  |  | 
10 | BIR-002: IMA950 class II peptide, positive control with known in vivo immunogenicity (TLGEFLKLDRERAKN; listed as Homo sapiens) [reference compound] |  | 3 | 0.24 | strength of stimulation response on average, above the background (CD4+ T cells [1]; CD4+ CFSE dim cells minus unstimulated control): 0.24%; immune response by vaccination (ICS) (CD4 T cells): 100%; patients mounting a strong CD4+ T-cell response (CD4+ T cells [2]): 84%
11 | 60 (SYPAKLSFI; listed as Homo sapiens) [compound 60] | +++ (50%-75% = +++) |  |  | 
12 | COL1A2-001 (NKPSRLPFLDIAPLDIGGAD; listed as Homo sapiens) |  | 2 | 0.48 | 
13 | CEA-006: IMA910 class II peptide, positive control with known in vivo immunogenicity (SPQYSWRINGIPQQHT; listed as Homo sapiens) [reference compound] |  | 1 | 0.20 | 
14 | MET-005: IMA950 class II peptide, positive control with known in vivo immunogenicity (TFSYVDPVITSISPKYG; listed as Homo sapiens) [reference compound] |  | 4 | 0.31 | immune response by vaccination (ICS) (CD4 T cells): 100%
15 | 80 (AYLKEVEQL; listed as Homo sapiens) [compound 80] | +++ (50%-75% = +++) |  |  | 
16 | 45 (KFLESKGYEF; listed as Homo sapiens) [compound 45] | +++ (50%-75% = +++) |  |  | 
17 | 31 (SYLDKVRAL; listed as Homo sapiens) [compound 31] | +++ (50%-75% = +++) |  |  | 
18 | ITGB6-001 (NPVSQVEILKNKPLSVG; listed as Homo sapiens) |  | 6 | 0.23 | 
19 | LAMP3-002 (IQLIVQDKESVFSPR; listed as Homo sapiens) |  | 5 | 0.25 | 
20 | MMP12-007 (LSADDIRGIQSLYGDPK; listed as Homo sapiens) |  | 2 | 0.28 | 
